According to patent US20230265104A1, “NOVEL HETEROCYCLIC COMPOUNDS” (PRISM BIOLAB CO., LTD., priority 2020, published 2023):

System: PANC-1 (human pancreatic cancer-derived cell line)
Assay: MTS assay on Panc-1 (human pancreas carcinoma cell line)
Assay type: cell-based
Details: 144 h; for IC50: PANC-1, MTS method, cell survival 6 days after exposure, 4-parameter logistic fit; for inhibition at 10 µM: read-out: Growth inhibition (%) 10 μM; for inhibition at 2.5 µM: read-out: Growth inhibition (%) 2.5 μM; for inhibition at 0.3125 µM: read-out: Growth inhibition (%) 0.3125 μM
Outline: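 Viability measured by MTS 6 days after treating human pancreatic carcinoma PANC-1 cells with compound serially diluted 2-fold in DMSO; absorbance 492–630 nm normalized to solvent control. Triplicate measurements averaged and fitted to a 4-parameter logistic curve.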

CC(C)C[C@H]1ON(C(=O)/C=C/c2ccccn2)[C@H]2CN(C3CCN(C4CCOCC4)CC3)C(=O)[C@H](CC(C)C)N2C1=O [ID-62, (3R,6S,9aS)-3,6-diisobutyl-1-((E)-3-(pyridin-2-yl)acryloyl)-8-(1-(tetrahydro-2H-pyran-4-yl)piperidin-4-yl)tetrahydropyrazino[2,1-c][1,2,4]oxadiazine-4,7(3H,6H)-dione] showed an IC50 of 3.4 µM.

CC(C)C[C@H]1ON(C(=O)/C=C/c2ccccn2)[C@H]2CN(C3CCN(C4CCCCC4)CC3)C(=O)[C@H](CC(C)C)N2C1=O [ID-63, (3R,6S,9aS)-8-(1-cyclohexylpiperidin-4-yl)-3,6-diisobutyl-1-((E)-3-(pyridin-2-yl)acryloyl)tetrahydropyrazino[2,1-c][1,2,4]oxadiazine-4,7(3H,6H)-dione] gave an IC50 of 1.4 µM.

CC(C)C[C@H]1ON(C(=O)/C=C/c2nc3ccccc3s2)[C@H]2CN(C3CCOCC3)C(=O)[C@H](CC(C)C)N2C1=O [ID-64, (3R,6S,9aS)-1-((E)-3-(benzo[d]thiazol-2-yl)acryloyl)-3,6-diisobutyl-8-(tetrahydro-2H-pyran-4-yl)tetrahydropyrazino[2,1-c][1,2,4]oxadiazine-4,7(3H,6H)-dione] gave an IC50 of 0.88 µM.

For CC(C)C[C@H]1ON(C(=O)/C=C/c2ccccn2)[C@H]2CN(C3CCCN(C)C3)C(=O)[C@H](CC(C)C)N2C1=O (stereo partly drawn) [ID-65, (3R,6S,9aS)-3,6-diisobutyl-8-(1-methylpiperidin-3-yl)-1-((E)-3-(pyridin-2-yl)acryloyl)tetrahydropyrazino[2,1-c][1,2,4]oxadiazine-4,7(3H,6H)-dione], the IC50 was 4.7 µM and the inhibition at 10 µM (PANC-1, MTS, 6 days) was 96.5%.

CC(C)C[C@H]1ON(C(=O)/C=C/c2ccccn2)[C@H]2CN(C3CCN(C)CC3)C(=O)[C@H](Cc3ccccc3)N2C1=O [ID-66, (3R,6S,9aS)-6-benzyl-3-isobutyl-8-(1-methylpiperidin-4-yl)-1-((E)-3-(pyridin-2-yl)acryloyl)tetrahydropyrazino[2,1-c][1,2,4]oxadiazine-4,7(3H,6H)-dione] showed an IC50 of 5.2 µM and an inhibition at 10 µM (PANC-1, MTS, 6 days) of 96.7%.

With CC(C)C[C@H]1ON(C(=O)/C=C/c2ccccn2)[C@H]2CN(C3CCCN(C)CC3)C(=O)[C@H](CC(C)C)N2C1=O (stereo partly drawn) [ID-67, (3R,6S,9aS)-3,6-diisobutyl-8-(1-methylazepan-4-yl)-1-((E)-3-(pyridin-2-yl)acryloyl)tetrahydropyrazino[2,1-c][1,2,4]oxadiazine-4,7(3H,6H)-dione] the IC50 was 3.3 µM and the inhibition at 10 µM (PANC-1, MTS, 6 days) was 100%.

Compound CC(C)C[C@H]1ON(C(=O)/C=C/c2ccccn2)[C@H]2CN(C3CCC(N)CC3)C(=O)[C@H](CC(C)C)N2C1=O (stereo partly drawn) [ID-68, (3R,6S,9aS)-8-(4-aminocyclohexyl)-3,6-diisobutyl-1-((E)-3-(pyridin-2-yl)acryloyl)tetrahydropyrazino[2,1-c][1,2,4]oxadiazine-4,7(3H,6H)-dione] has an IC50 of 2.8 µM.

CC(C)C[C@H]1ON(C(=O)/C=C/c2ccccn2)[C@H]2CN(C3CCC(N(C)C)CC3)C(=O)[C@H](CC(C)C)N2C1=O (stereo partly drawn) [ID-69, (3R,6S,9aS)-8-(4-(dimethylamino)cyclohexyl)-3,6-diisobutyl-1-((E)-3-(pyridin-2-yl)acryloyl)tetrahydropyrazino[2,1-c][1,2,4]oxadiazine-4,7(3H,6H)-dione] gave an IC50 of 2.8 µM.

Work on CC(C)C[C@H]1ON(C(=O)/C=C/c2ccccn2)[C@H]2CN(C3CC4CCC(C3)N4C)C(=O)[C@H](CC(C)C)N2C1=O (stereo partly drawn) [ID-70, (3R,6S,9aS)-3,6-diisobutyl-8-(8-methyl-8-azabicyclo[3.2.1]octan-3-yl)-1-((E)-3-(pyridin-2-yl)acryloyl)tetrahydropyrazino[2,1-c][1,2,4]oxadiazine-4,7(3H,6H)-dione] yielded an IC50 of 2.5 µM.

Work on CC(C)C[C@H]1ON(C(=O)/C=C/c2ccc(C(F)(F)F)cn2)[C@H]2CN(C3CCN(C)CC3)C(=O)[C@H](CC(C)C)N2C1=O [ID-71, (3R,6S,9aS)-3,6-diisobutyl-8-(1-methylpiperidin-4-yl)-1-((E)-3-(5-(trifluoromethyl)pyridin-2-yl)acryloyl)tetrahydropyrazino[2,1-c][1,2,4]oxadiazine-4,7(3H,6H)-dione] yielded an inhibition at 2.5 µM (PANC-1, MTS, 6 days) of 97.3%.

With COc1ccc(/C=C/C(=O)N2O[C@H](CC(C)C)C(=O)N3[C@@H]2CN(C2CCN(C)CC2)C(=O)[C@@H]3CC(C)C)nc1 [ID-72, (3R,6S,9aS)-3,6-diisobutyl-1-((E)-3-(5-methoxypyridin-2-yl)acryloyl)-8-(1-methylpiperidin-4-yl)tetrahydropyrazino[2,1-c][1,2,4]oxadiazine-4,7(3H,6H)-dione] the inhibition at 2.5 µM (PANC-1, MTS, 6 days) was 37%.

In the case of CC(C)C[C@H]1ON(C(=O)/C=C/c2nc3ccccc3s2)[C@H]2CN(C3CCN(C(C)C)CC3)C(=O)[C@H](CC(C)(C)C)N2C1=O [ID-73, (3R,6S,9aS)-1-((E)-3-(benzo[d]thiazol-2-yl)acryloyl)-3-isobutyl-8-(1-isopropylpiperidin-4-yl)-6-neopentyltetrahydropyrazino[2,1-c][1,2,4]oxadiazine-4,7(3H,6H)-dione], the IC50 is reported as 0.14 µM and the inhibition at 0.3125 µM (PANC-1, MTS, 6 days) is reported as 88.1%.

CC(C)C[C@H]1ON(C(=O)/C=C/c2nc3ccccc3s2)[C@H]2CN(C3CCN(C)CC3)C(=O)[C@H](CCS(C)(=O)=O)N2C1=O [ID-74, (3R,6S,9aS)-1-((E)-3-(benzo[d]thiazol-2-yl)acryloyl)-3-isobutyl-8-(1-methylpiperidin-4-yl)-6-(2-(methylsulfonyl)ethyl)tetrahydropyrazino[2,1-c][1,2,4]oxadiazine-4,7(3H,6H)-dione] gave an inhibition at 0.3125 µM (PANC-1, MTS, 6 days) of 38.7%.

CC(C)C[C@H]1ON(C(=O)/C=C/c2nc3ccccc3s2)[C@H]2CN(C3CCN(CCCN)CC3)C(=O)[C@H](CC(C)(C)C)N2C1=O [ID-75, (3R,6S,9aS)-8-(1-(3-aminopropyl)piperidin-4-yl)-1-((E)-3-(benzo[d]thiazol-2-yl)acryloyl)-3-isobutyl-6-neopentyltetrahydropyrazino[2,1-c][1,2,4]oxadiazine-4,7(3H,6H)-dione] gave an IC50 of 0.39 µM and an inhibition at 0.3125 µM (PANC-1, MTS, 6 days) of 19.9%.

CC(C)C[C@H]1ON(C(=O)/C=C/c2nc3ccccc3s2)[C@H]2CN(C3CCN(CCCC(=O)O)CC3)C(=O)[C@H](CC(C)(C)C)N2C1=O [ID-76, 4-(4-((3R,6S,9aS)-1-((E)-3-(benzo[d]thiazol-2-yl)acryloyl)-3-isobutyl-6-neopentyl-4,7-dioxohexahydropyrazino[2,1-c][1,2,4]oxadiazin-8 (1H)-yl)piperidin-1-yl)butanoic acid] gave an IC50 of 1.6 µM.

With CC(C)C[C@H]1ON(C(=O)/C=C/c2nc3ccccc3s2)[C@H]2CN(C3CCN(CCOCCO)CC3)C(=O)[C@H](CC(C)(C)C)N2C1=O [ID-77, (3R,6S,9aS)-1-((E)-3-(benzo[d]thiazol-2-yl)acryloyl)-8-(1-(2-(2-hydroxyethoxy)ethyl)piperidin-4-yl)-3-isobutyl-6-neopentyltetrahydropyrazino[2,1-c][1,2,4]oxadiazine-4,7(3H,6H)-dione] the inhibition at 0.3125 µM (PANC-1, MTS, 6 days) was 55.2%.

With CSc1nccc(/C=C/C(=O)N2O[C@H](CC(C)C)C(=O)N3[C@@H]2CN([C@H]2CCN(CCCCO)C2)C(=O)[C@@H]3CC(C)(C)C)n1 [ID-78, (3R,6S,9aS)-8-((S)-1-(4-hydroxybutyl)pyrrolidin-3-yl)-3-isobutyl-1-((E)-3-(2-(methylthio)pyrimidin-4-yl)acryloyl)-6-neopentyltetrahydropyrazino[2,1-c][1,2,4]oxadiazine-4,7(3H,6H)-dione] the inhibition at 0.3125 µM (PANC-1, MTS, 6 days) was 41.5%.

Compound CC(C)C[C@H]1ON(C(=O)/C=C/c2nc3ccccc3s2)[C@H]2CN(C3CCN(CCCO)CC3)C(=O)[C@H](CC(C)(C)C)N2C1=O [ID-79, (3R,6S,9aS)-1-((E)-3-(benzo[d]thiazol-2-yl)acryloyl)-8-(1-(3-hydroxypropyl)piperidin-4-yl)-3-isobutyl-6-neopentyltetrahydropyrazino[2,1-c][1,2,4]oxadiazine-4,7(3H,6H)-dione] has an inhibition at 0.3125 µM (PANC-1, MTS, 6 days) of 72.2%.

CC(C)C[C@H]1ON(C(=O)/C=C/c2ccc(-c3cccc(O)c3)cn2)[C@H]2CN(C3CCN(CCCCO)CC3)C(=O)[C@H](CC(C)(C)C)N2C1=O [ID-80, (3R,6S,9aS)-8-(1-(4-hydroxybutyl)piperidin-4-yl)-1-((E)-3-(5-(3-hydroxyphenyl)pyridin-2-yl)acryloyl)-3-isobutyl-6-neopentyltetrahydropyrazino[2,1-c][1,2,4]oxadiazine-4,7(3H,6H)-dione] was tested, and the inhibition at 0.625 µM (PANC-1, MTS, 6 days, 0.625 μM, read-out: Growth inhibition (%) 0.625 μM) was 63.2%.

With C#Cc1csc(/C=C/C(=O)N2O[C@H](CC(C)C)C(=O)N3[C@@H]2CN([C@H]2CCN(CCCCO)C2)C(=O)[C@@H]3CC(C)(C)C)n1 [ID-81, (3R,6S,9aS)-1-((E)-3-(4-ethynylthiazol-2-yl)acryloyl)-8-((S)-1-(4-hydroxybutyl)pyrrolidin-3-yl)-3-isobutyl-6-neopentyltetrahydropyrazino[2,1-c][1,2,4]oxadiazine-4,7(3H,6H)-dione] the inhibition at 0.3125 µM (PANC-1, MTS, 6 days) was 69.6%.

Compound CC(C)C[C@H]1ON(C(=O)/C=C/c2nc(-c3cccnc3)cs2)[C@H]2CN([C@H]3CCN(CCCCO)C3)C(=O)[C@H](CC(C)(C)C)N2C1=O [ID-82, (3R,6S,9aS)-8-((S)-1-(4-hydroxybutyl)pyrrolidin-3-yl)-3-isobutyl-6-neopentyl-1-((E)-3-(4-(pyridin-3-yl)thiazol-2-yl)acryloyl)tetrahydropyrazino[2,1-c][1,2,4]oxadiazine-4,7 (3H, 6H)-dione] has an inhibition at 0.3125 µM (PANC-1, MTS, 6 days) of 48.6%.

Work on CC(C)C[C@H]1ON(C(=O)/C=C/c2nc3ccccc3s2)[C@H]2CN(C3CCN(CCC(CO)CO)CC3)C(=O)[C@H](CC(C)(C)C)N2C1=O [ID-83, (3R,6S,9aS)-1-((E)-3-(benzo[d]thiazol-2-yl)acryloyl)-8-(1-(4-hydroxy-3-(hydroxymethyl)butyl)piperidin-4-yl)-3-isobutyl-6-neopentyltetrahydropyrazino[2,1-c][1,2,4]oxadiazine-4,7(3H,6H)-dione] yielded an inhibition at 0.3125 µM (PANC-1, MTS, 6 days) of 46.5%.
